Laboratory results reported in PMC5775428, “Towards an experimental classification system for membrane active peptides” (Scientific Reports, 2018).
Read-outs that look alike come from different tables or passages of the source.

What was measured:
[1] = test system: Xanthomonas campestris; conditions: for Minimum inhibitory concentration, Average: average of triplicates
Procedure: (§1) Antimicrobial activity was tested against three categories of human and plant pathogenic microorganisms: Gram-positive (Bacillus subtilis, Bacillus cereus, Staphylococcus aureus), Gram-negative (Escherichia coli, Pseudomonas aeruginosa, Erwinia carotovora, Pseudomonas syringae pv. tabaci, Xanthomonas campestris pv. citri) and yeasts (Candida albicans, Cryptococcus neoformans), as previously reported. […] The full list of peptide MICs was published in an accompanying paper, and is available in the current publication as supplementary dataset (Supplementary dataset 01).
(§2) The determination of the minimum inhibitory concentration (MIC) of peptides was performed as described in “Encrypted Antimicrobial Peptides from Plant Proteins”[7]. Briefly, MICs were determined following protocols M7-A10 and M27-A3 from Clinical & Laboratory Standards Institute (CLSI) for bacteria and yeasts, respectively. Different concentrations of IAPs (0.5 to 256 μM) were tested against several microorganisms in a final volume of 100 µL. Three biological repetitions, with 2 technical replicates each, were performed for each test, on polystyrene flat-bottom 96 wells microplates. The minimum inhibitory concentration (MIC) was defined as the concentration at which no cells were detected when visualized by optical microscopy. Please refer to the literature[7] for further details of the microbiological assays.

[2] = test system: Erwinia carotovora; conditions: Erwinia carotovora; for Minimum inhibitory concentration, Average: average of triplicates
Procedure: as §1, §2

[3] = test system: Bacillus cereus; conditions: Bacillus cereus; for Minimum inhibitory concentration, Average: average of triplicates
Procedure: as §1, §2

[4] = test system: Cryptococcus neoformans; conditions: Cryptococcus neoformans; for Minimum inhibitory concentration, Average: average of triplicates
Procedure: as §1, §2

[5] = test system: Pseudomonas syringae pv. tabaci; conditions: Pseudomonas syringae pv. tabaci; for Minimum inhibitory concentration, Average: average of triplicates
Procedure: as §1, §2

[6] = test system: Escherichia coli; conditions: Escherichia coli; for Minimum inhibitory concentration, Average: average of triplicates
Procedure: as §1, §2

[7] = test system: Pseudomonas aeruginosa; conditions: Pseudomonas aeruginosa; for Minimum inhibitory concentration, Average: average of triplicates
Procedure: as §1, §2

[8] = test system: Bacillus subtilis; conditions: Bacillus subtilis; for Minimum inhibitory concentration, Average: average of triplicates
Procedure: as §1, §2

[9] = test system: Candida albicans; conditions: Candida albicans; for Minimum inhibitory concentration, Average: average of triplicates
Procedure: as §1, §2

[10] = test system: Staphylococcus aureus; conditions: Staphylococcus aureus; for Minimum inhibitory concentration, Average: average of triplicates
Procedure: as §1, §2

[11] = CLSI M27-A3, 0.5 to 256 μM tested, triplicate 1, also published in ref 7

Sequence	Minimum inhibitory concentration ([1]; CLSI M7-A10, triplicate 1) [µM]	Minimum inhibitory concentration, Average [1] [µM]	Minimum inhibitory concentration ([1]; triplicate 2) [µM]	Minimum inhibitory concentration ([1]; triplicate 3) [µM]	Minimum inhibitory concentration ([2]; CLSI M7-A10, triplicate 1) [µM]	Minimum inhibitory concentration, Average [2] [µM]	Minimum inhibitory concentration ([2]; triplicate 2) [µM]	Minimum inhibitory concentration ([2]; triplicate 3) [µM]	Minimum inhibitory concentration ([3]; CLSI M7-A10, triplicate 1) [µM]	Minimum inhibitory concentration, Average [3] [µM]	Minimum inhibitory concentration ([3]; triplicate 2) [µM]	Minimum inhibitory concentration ([3]; triplicate 3) [µM]	Minimum inhibitory concentration ([4]; CLSI M27-A3, triplicate 1) [µM]	Minimum inhibitory concentration, Average [4] [µM]	Minimum inhibitory concentration ([4]; triplicate 2) [µM]	Minimum inhibitory concentration ([4]; triplicate 3) [µM]	Minimum inhibitory concentration ([5]; CLSI M7-A10, triplicate 1) [µM]	Minimum inhibitory concentration, Average [5] [µM]	Minimum inhibitory concentration ([5]; triplicate 2) [µM]	Minimum inhibitory concentration ([5]; triplicate 3) [µM]	also measured
GAKLAKKQVRALGKFFSF [At03]	32	32.0	32	32	32	32.0	32	32	512	512.0	512	512	64	64.0	64	64	8	8.0	8	8	Minimum inhibitory concentration ([6]; CLSI M7-A10, triplicate 1): 16 µM; Minimum inhibitory concentration, Average [6]: 16.0 µM; Minimum inhibitory concentration ([6]; triplicate 2): 16 µM; Minimum inhibitory concentration ([6]; triplicate 3): 16 µM; Minimum inhibitory concentration ([7]; CLSI M7-A10, triplicate 1): 512 µM; Minimum inhibitory concentration, Average [7]: 512.0 µM; Minimum inhibitory concentration ([7]; triplicate 2): 512 µM; Minimum inhibitory concentration ([7]; triplicate 3): 512 µM; Minimum inhibitory concentration ([8]; CLSI M7-A10, triplicate 1): 8 µM; Minimum inhibitory concentration, Average [8]: 8.0 µM; Minimum inhibitory concentration ([8]; triplicate 2): 8 µM; Minimum inhibitory concentration ([8]; triplicate 3): 8 µM; Minimum inhibitory concentration [9, 11]: 128 µM; Minimum inhibitory concentration, Average [9]: 128.0 µM; Minimum inhibitory concentration ([9]; triplicate 2): 128 µM; Minimum inhibitory concentration ([9]; triplicate 3): 128 µM; Minimum inhibitory concentration ([10]; CLSI M7-A10, triplicate 1): 512 µM; Minimum inhibitory concentration, Average [10]: 512.0 µM; Minimum inhibitory concentration ([10]; triplicate 2): 512 µM; Minimum inhibitory concentration ([10]; triplicate 3): 512 µM
GFKDLLKGAAKALVKTVLF [Asc-8, Ascaphin 8, reference compound]	2	2.0	2	2	2	3.3	4	4	4	4.0	4	4	4	4.0	4	4	2	2.0	2	2	Minimum inhibitory concentration ([6]; CLSI M7-A10, triplicate 1): 2 µM; Minimum inhibitory concentration, Average [6]: 2.0 µM; Minimum inhibitory concentration ([6]; triplicate 2): 2 µM; Minimum inhibitory concentration ([6]; triplicate 3): 2 µM; Minimum inhibitory concentration ([7]; CLSI M7-A10, triplicate 1): 4 µM; Minimum inhibitory concentration, Average [7]: 4.0 µM; Minimum inhibitory concentration ([7]; triplicate 2): 4 µM; Minimum inhibitory concentration ([7]; triplicate 3): 4 µM; Minimum inhibitory concentration ([8]; CLSI M7-A10, triplicate 1): 1 µM; Minimum inhibitory concentration, Average [8]: 1.0 µM; Minimum inhibitory concentration ([8]; triplicate 2): 1 µM; Minimum inhibitory concentration ([8]; triplicate 3): 1 µM; Minimum inhibitory concentration [9, 11]: 8 µM; Minimum inhibitory concentration, Average [9]: 8.0 µM; Minimum inhibitory concentration ([9]; triplicate 2): 8 µM; Minimum inhibitory concentration ([9]; triplicate 3): 8 µM; Minimum inhibitory concentration ([10]; CLSI M7-A10, triplicate 1): 2 µM; Minimum inhibitory concentration, Average [10]: 2.0 µM; Minimum inhibitory concentration ([10]; triplicate 2): 2 µM; Minimum inhibitory concentration ([10]; triplicate 3): 2 µM
GFKLGRKLVKVFKWII [Gr01]	1	1.0	1	1	0.5	0.5	0.5	0.5	1	1.0	1	1	1	1.0	1	1	1	1.0	1	1	Minimum inhibitory concentration ([6]; CLSI M7-A10, triplicate 1): 0.5 µM; Minimum inhibitory concentration, Average [6]: 0.5 µM; Minimum inhibitory concentration ([6]; triplicate 2): 0.5 µM; Minimum inhibitory concentration ([6]; triplicate 3): 0.5 µM; Minimum inhibitory concentration ([7]; CLSI M7-A10, triplicate 1): 2 µM; Minimum inhibitory concentration, Average [7]: 3.3 µM; Minimum inhibitory concentration ([7]; triplicate 2): 4 µM; Minimum inhibitory concentration ([7]; triplicate 3): 4 µM; Minimum inhibitory concentration ([8]; CLSI M7-A10, triplicate 1): 1 µM; Minimum inhibitory concentration, Average [8]: 1.0 µM; Minimum inhibitory concentration ([8]; triplicate 2): 1 µM; Minimum inhibitory concentration ([8]; triplicate 3): 1 µM; Minimum inhibitory concentration [9, 11]: 1 µM; Minimum inhibitory concentration, Average [9]: 1.0 µM; Minimum inhibitory concentration ([9]; triplicate 2): 1 µM; Minimum inhibitory concentration ([9]; triplicate 3): 1 µM; Minimum inhibitory concentration ([10]; CLSI M7-A10, triplicate 1): 0.5 µM; Minimum inhibitory concentration, Average [10]: 0.8 µM; Minimum inhibitory concentration ([10]; triplicate 2): 1 µM; Minimum inhibitory concentration ([10]; triplicate 3): 1 µM
GKILKYLLYLLRKYANLIIR [Tc02]	16	16.0	16	16	16	16.0	16	16	16	13.3	16	8	1	1.0	1	1	4	4.0	4	4	Minimum inhibitory concentration ([6]; CLSI M7-A10, triplicate 1): 8 µM; Minimum inhibitory concentration, Average [6]: 10.7 µM; Minimum inhibitory concentration ([6]; triplicate 2): 8 µM; Minimum inhibitory concentration ([6]; triplicate 3): 16 µM; Minimum inhibitory concentration ([7]; CLSI M7-A10, triplicate 1): 16 µM; Minimum inhibitory concentration, Average [7]: 16.0 µM; Minimum inhibitory concentration ([7]; triplicate 2): 16 µM; Minimum inhibitory concentration ([7]; triplicate 3): 16 µM; Minimum inhibitory concentration ([8]; CLSI M7-A10, triplicate 1): 4 µM; Minimum inhibitory concentration, Average [8]: 4.0 µM; Minimum inhibitory concentration ([8]; triplicate 2): 4 µM; Minimum inhibitory concentration ([8]; triplicate 3): 4 µM; Minimum inhibitory concentration [9, 11]: 1 µM; Minimum inhibitory concentration, Average [9]: 1.0 µM; Minimum inhibitory concentration ([9]; triplicate 2): 1 µM; Minimum inhibitory concentration ([9]; triplicate 3): 1 µM; Minimum inhibitory concentration ([10]; CLSI M7-A10, triplicate 1): 8 µM; Minimum inhibitory concentration, Average [10]: 8.0 µM; Minimum inhibitory concentration ([10]; triplicate 2): 8 µM; Minimum inhibitory concentration ([10]; triplicate 3): 8 µM
